Test results: PubChem BioAssay (NCI)
Where “and” joins values, the source holds several entries; their conditions need not be identical. Identical values can stand only once.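 Growth conditions: 96-well plates. Treatment: test compound, 48 hours, 5 concentrations. Analysis: linear interpolation between bracketing concentrations; unreached endpoints set to highest concentration. GI50: concentration for 50% inhibition of growth. TGI denotes the concentration required for complete inhibition of growth.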

How the values were obtained:
Assay in all cases: inhibition of tumour cell growth, NCI panel, 48 h
IGROV1 ovarian = test system: IGROV1 ovarian
UACC-257 melanoma = test system: UACC-257 melanoma
M19-MEL melanoma = test system: M19-MEL melanoma
NCI-H23 lung = test system: NCI-H23 lung
MCF7 breast = test system: MCF7 breast
HL-60(TB) leukemia = test system: HL-60(TB) leukemia
SF-268 CNS = test system: SF-268 CNS
HCT-15 colon = test system: HCT-15 colon
MALME-3M melanoma = test system: MALME-3M melanoma
OVCAR-5 ovarian = test system: OVCAR-5 ovarian
HOP-62 NSCLC = test system: HOP-62 NSCLC
HCC-2998 colon = test system: HCC-2998 colon
OVCAR-3 ovarian = test system: OVCAR-3 ovarian
LOX IMVI melanoma = test system: LOX IMVI melanoma

C/C(=C\COc1ccc2ccc(=O)oc2c1)C1=CC(=O)C(C)(C)O1
GI50 (IGROV1 ovarian): 2.73 µM
TGI (IGROV1 ovarian): 9.02 µM and 22.1 µM
GI50 (UACC-257 melanoma): 7.22 µM
TGI (UACC-257 melanoma): 29.7 µM and 11.3 µM
TGI (M19-MEL melanoma): 14.6 µM
GI50 (NCI-H23 lung): 2.79 µM
TGI (NCI-H23 lung): 12.3 µM and 8.98 µM
GI50 (MCF7 breast): 2.35 µM and 1.09 µM
TGI (MCF7 breast): 12.9 µM and 5.4 µM
GI50 (HL-60(TB) leukemia): 1.76 µM
TGI (HL-60(TB) leukemia): 5.09 µM and 16.9 µM
GI50 (SF-268 CNS): 4.74 µM
TGI (SF-268 CNS): 14.9 µM and 14.3 µM
TGI (HCT-15 colon): 15.9 µM and 19.4 µM
TGI (MALME-3M melanoma): 25.6 µM and 14.8 µM
GI50 (OVCAR-5 ovarian): 3.19 µM
TGI (OVCAR-5 ovarian): 10.8 µM and 20.9 µM
GI50 (HOP-62 NSCLC): 6.12 µM
TGI (HOP-62 NSCLC): 39.7 µM and 14.1 µM
GI50 (HCC-2998 colon): 2.85 µM
TGI (HCC-2998 colon): 5.76 µM and 8.34 µM
GI50 (OVCAR-3 ovarian): 2.44 µM
TGI (OVCAR-3 ovarian): 5.55 µM and 9.43 µM
GI50 (LOX IMVI melanoma): 2.2 µM
TGI (LOX IMVI melanoma): 9.69 µM and 7.47 µM
